Laboratory results reported in EP0701444B1, “METHODS AND COMPOSITIONS FOR INDUCING SLEEP” (Purdue Pharma Ltd., priority 1993, dated 1994).
Where “and” joins values, the source holds several entries; their conditions need not be identical. Identical values can stand only once. Counter-ions that a name gives are not always drawn.

The molecules below were run against steroid site on the GABAA receptor-chloride channel complex (assay: [35S]TBPS binding assay). Settings: inhibition of [35S]TBPS (2 nM) binding, rat cerebral cortex P2 membranes, 5 µM GABA, 90 minute incubation at 22°C.
Design: species or system Male Sprague-Dawley rats
Protocol: TBPS binding assays were conducted according to the following procedures, which are described in Gee, K.W.; Lawrence, L.J.; and Yamamura, H. I., "Modulation of the Chloride Ionophore by Benzodiazepine Receptor Ligands Influence of Gamma-Aminobutyric Acid and Ligand Efficacy," Molecular Pharmacology, 30:218, 1986. Male Sprague-Dawley rats (200-250g) were anesthetized with carbon dioxide and decapitated. The rats' brains were removed and the cerebral cortices were dissected and homogenized in 10 volumes of 0.32 M sucrose. Tissue was centrifuged at 1000 x g for 10 minutes and the resultant supernatant was centrifuged at 9,000 g for 20 minutes. The resultant pellet was resuspended in 10 volumes of 200 mM NaCl/50 mM Na-K phosphate pH 7.4 buffer (binding buffer) and then centrifuged at 9,000 x g for 10 minutes. This washing procedure was repeated twice and the final P2 pellet was resuspended in the binding buffer. For the binding assay, [^35S] TBPS (2 nM) was co-incubated in binding buffer with P2 membranes and 5 µM GABA and either 1) no additions to measure total binding; 2) 2 µM unlabeled TPBS to measure nonspecific binding; 3) the neurosteroid ranging in concentration from 1 Nm to 10µM. Following a 90 minute incubation at 22°C, the suspension was filtered and the bound radioactivity was determined by liquid scintillation counting. […] A lower IC50 indicates higher affinity for the steroid site on the GABAA receptor-chloride channel complex. Table 1 gives the IC50 values of representative steroids used in the present invention.
In the case of “3α-Hydroxy-3β-trifluoromethyl-5β-19-nor-pregn-17(20)-ene”, the IC50 is reported as 482 nM.
“20,20-ethylenedioxy-3α-hydroxy-5α-pregnan-20-one” showed an IC50 of 176 nM.
In the case of CC(=O)[C@H]1CC[C@H]2[C@@H]3CC[C@@H]4C[C@@](O)(C#CCC(C)OC(=O)CCC(=O)O)CC[C@]4(C)[C@H]3CC[C@]12C (mixture of isomers) [3α-Hydroxy-3β-[4'(R/S)-hydroxypentynyl]-5β-pregnan-20-one 4'(R/S)-hemisuccinate sodium salt], the IC50 is reported as 153 nM.
Molecule CC(C)(O)[C@H]1CC[C@H]2[C@@H]3CC[C@H]4C[C@H](O)CC[C@]4(C)[C@H]3CC[C@]12C [3α,20-dihydroxy-20-methyl-5α-pregnane] has an IC50 of 151 nM.
In the case of CCC[C@H](O)[C@H]1CC[C@H]2[C@@H]3CC[C@H]4C[C@H](O)CC[C@]4(C)[C@H]3CC[C@]12C [3α,20a-Dihydroxy-21-ethyl-5α-pregnane], the IC50 is reported as 27 nM.
CC[C@H](O)[C@H]1CC[C@H]2[C@@H]3CC[C@H]4C[C@H](O)CC[C@]4(C)[C@H]3CC[C@]12C [3α,20a-Dihydroxy-21-methyl-5α-pregnane] showed an IC50 of 35 nM.
In the case of C[C@H](O)[C@H]1CC[C@H]2[C@@H]3CC[C@H]4C[C@](C)(O)CC[C@]4(C)[C@H]3CC[C@]12C [3α,20a-dihydroxy-30-methyl-5α-pregnane], the IC50 is reported as 166 nM.
For C[C@@H](O)[C@H]1CC[C@H]2[C@@H]3CC[C@@H]4C[C@H](O)CC[C@]4(C)[C@H]3CC[C@]12C [3α,20b-dihydroxy-5β-pregnane], the IC50 was 206 nM.
C#C[C@@]1(O)CC[C@@]2(C)[C@@H](CC[C@@H]3[C@@H]2CC[C@]2(C)[C@@H](C(=O)CO)CC[C@@H]32)C1 [3α,21-Dihydroxy-3β-ethynyl-5α-pregnan-20-one] was tested, and the IC50 was 216 nM.
CC(=O)OCC(=O)[C@H]1CC[C@H]2[C@@H]3CC[C@@H]4C[C@@](O)(C(F)(F)F)CC[C@]4(C)[C@H]3CC[C@]12C [3α,21-Dihydroxy-3β-trifluoromethyl-5β-pregnan-20-one, 21-acetate] was tested, and the IC50 was 370 nM.
Molecule C[C@@]1(O)CC[C@@]2(C)[C@@H](CC[C@@H]3[C@@H]2CC[C@]2(C)[C@@H](C(=O)COC(=O)CCC(=O)O)CC[C@@H]32)C1 [3α,21-dihydroxy-3β-methyl-5α-pregnan-20-one 21-Hemisuccinate] has an IC50 of 241 nM.
For CC(=O)OCC(=O)[C@H]1CC[C@H]2[C@@H]3CC[C@H]4C[C@H](O)CC[C@]4(C)[C@H]3CC[C@]12C [3α,21-dihydroxy-5α-pregnan-20-one 21-acetate], the IC50 was 75 nM and 119 nM.
In the case of C[C@]12CC[C@@H](O)C[C@@H]1CC[C@@H]1[C@@H]2CC[C@]2(C)[C@@H](C(=O)COC(=O)CCC(=O)O)CC[C@@H]12 [3α,21-dihydroxy-5α-pregnan-20-one 21-hemisuccinate], the IC50 is reported as 117 nM.
C[C@]12CC[C@@H](O)C[C@H]1CC[C@@H]1[C@@H]2CC[C@]2(C)[C@@H](C(=O)COC(=O)CCC(=O)O)CC[C@@H]12 [3α,21-dihydroxy-5β-pregnan-20-one 21-hemisuccinate] showed an IC50 of 224 nM.
C[C@]12CC[C@@H](O)C[C@H]1CC[C@@H]1[C@@H]2CC[C@]2(C)[C@@H](C(=O)CO)CC[C@@H]12 [3α,21-dihydroxy-50-pregnan-20-one] gave an IC50 of 180 nM.
CC(C)(O)[C@H]1CC[C@H]2[C@@H]3CC[C@H]4C[C@](C)(O)CC[C@]4(C)[C@H]3CC[C@]12C [3α, 20-dihydroxy-3β, 20-dimethyl-5α-pregnane] was tested, and the IC50 was 264 nM.
With C[C@H](O)[C@H]1CC[C@H]2[C@@H]3CC[C@@H]4C[C@H](O)CC[C@]4(C)[C@H]3CC[C@]12C [3α, 20a-dihydroxy-5β-pregnane] the IC50 was 292 nM.
For C#C[C@@]1(O)CC[C@@]2(C)[C@H](CC[C@@H]3[C@@H]2CC[C@]2(C)[C@@H](C(=O)COC(C)=O)CC[C@@H]32)C1 [3α, 21-Dihydroxy-3β-ethynyl-5β-pregnan-20-one, 21-acetate], the IC50 was 251 nM.
Work on C[C@]12CC[C@H]3[C@@H](CC[C@@H]4C[C@@](O)(C(F)(F)F)CC[C@@H]43)[C@@H]1CC[C@@H]2C(=O)CO [3α, 21-Dihydroxy-3β-trifluoromethyl-19-nor-5β-pregnan-20-one] yielded an IC50 of 265 nM.
C[C@@]1(O)CC[C@@]2(C)[C@@H](CC[C@@H]3[C@@H]2CC[C@]2(C)[C@@H](C(=O)COS(C)(=O)=O)CC[C@@H]32)C1 [3α, 21-dihydroxy-3β-methyl-5α-pregnan-20-one 21-mesylate] gave an IC50 of 255 nM.
C=CC[C@@]1(O)CC[C@@]2(C)[C@H](CC[C@@H]3[C@@H]2CC[C@]2(C)[C@@H](C(C)=O)CC[C@@H]32)C1 [3α-Hydroxy-3β-(2'-propenyl)-5β-pregnan-20-one] showed an IC50 of 75 nM.
Work on CC(=O)[C@H]1CC[C@H]2[C@@H]3CC[C@H]4C[C@@](O)(C#CC(C)O)CC[C@]4(C)[C@H]3CC[C@]12C (stereo partly drawn) [3α-Hydroxy-3β-[3'(RS)-hydroxybutynyl]-5α-pregnan-20-one] yielded an IC50 of 140 nM.
C/C=C1/CC[C@H]2[C@@H]3CC[C@@H]4C[C@](C)(O)CC[C@@H]4[C@H]3CC[C@]12C [3α-Hydroxy-3β-methyl-5β-19-nor-pregn-17 (Z)-ene] gave an IC50 of 154 nM.
Molecule CC(=O)[C@H]1CC[C@H]2[C@@H]3CC[C@@H]4C[C@](C)(O)CC[C@@H]4[C@H]3CC[C@]12C [3α-Hydroxy-3β-methyl-5β-19-nor-pregnan-20-one] has an IC50 of 26 nM.
CC(=O)[C@H]1CC[C@H]2[C@@H]3CC[C@H]4C[C@@](O)(C(F)(F)F)CC[C@@H]4[C@H]3CC[C@]12C [3α-Hydroxy-3β-trifluoromethyl-19-nor-5α-pregnan-20-one] gave an IC50 of 251 nM.
In the case of C[C@@]12CCC[C@H]1[C@@H]1CC[C@H]3C[C@H](O)CC[C@]3(C)[C@H]1CC2 [3α-Hydroxy-5α-androstane], the IC50 is reported as 252 nM.
C/C=C1/CC[C@H]2[C@@H]3CC[C@@H]4C[C@H](O)CC[C@@H]4[C@H]3CC[C@]12C [3α-Hydroxy-5β-19-nor-pregn-17(z) ene] showed an IC50 of 209 nM.
With C#C[C@H]1CC[C@H]2[C@@H]3CC[C@H]4C[C@H](O)CC[C@]4(C)[C@H]3CC[C@]12C [3α-Hydroxy-17b-ethynyl-5α-androstane] the IC50 was 254 nM.
In the case of CCC(=O)[C@H]1CC[C@H]2[C@@H]3CC[C@H]4C[C@](C)(O)CC[C@]4(C)[C@H]3CC[C@]12C [3α-hydroxy-3β,21-dimethyl-5α-pregnan-20-one], the IC50 is reported as 89 nM.
With CC(=O)[C@H]1CC[C@H]2[C@@H]3CC[C@H]4C[C@@](O)(CCl)CC[C@]4(C)[C@H]3CC[C@]12C [3α-hydroxy-3β-chloromethyl-5α-pregnan-20-one] the IC50 was 93 nM.
Molecule CC[C@@]1(O)CC[C@@]2(C)[C@@H](CC[C@@H]3[C@@H]2CC[C@]2(C)[C@@H](C(C)=O)CC[C@@H]32)C1 [3α-hydroxy-3β-ethyl-5α-pregnan-20-one] has an IC50 of 265 nM.
With CC(=O)[C@H]1CC[C@H]2[C@@H]3CC[C@H]4C[C@@](O)(CF)CC[C@]4(C)[C@H]3CC[C@]12C [3α-hydroxy-3β-fluoromethyl-5α-pregnan-20-one] the IC50 was 200 nM.
COC[C@@]1(O)CC[C@@]2(C)[C@@H](CC[C@@H]3[C@@H]2CC[C@]2(C)[C@@H](C(C)=O)CC[C@@H]32)C1 [3α-hydroxy-3β-methoxymethyl-5α-pregnan-20-one] gave an IC50 of 67 nM.
C/C=C1/CC[C@H]2[C@@H]3CC[C@H]4C[C@](C)(O)CC[C@@H]4[C@H]3CC[C@]12C [3α-hydroxy-3β-methyl-5α-19-nor-pregn-(Z)-17(20)-ene] was tested, and the IC50 was 364 nM.
For CC(=O)[C@H]1CC[C@H]2[C@@H]3CC[C@H]4C[C@](C)(O)CC[C@@H]4[C@H]3CC[C@]12C [3α-hydroxy-3β-methyl-5α-19-nor-pregnan-20-) one], the IC50 was 91 nM.
C/C=C1/CC[C@H]2[C@@H]3CC[C@@H]4C[C@H](O)CC[C@]4(C)[C@H]3CC[C@]12C [3α-hydroxy-5β-pregnan-cis(Z)-17(20)-ene] was tested, and the IC50 was 180 nM.
For CO/C=C1/CC[C@H]2[C@@H]3CC[C@H]4C[C@H](O)CC[C@@H]4[C@H]3CC[C@]12C [3α-hydroxy-17(Z)-methoxymethylene-19-nor-5α-androstane], the IC50 was 350 nM.
Molecule C[C@]12CC[C@@H](O)C[C@@H]1CC[C@@H]1[C@@H]2CC[C@]2(C)[C@@H](C#N)CC[C@@H]12 [3α-hydroxy-17b-cyano-5α-androstane] has an IC50 of 67 nM.
Molecule C[C@]12CC[C@@H](O)C[C@@H]1CC[C@@H]1[C@@H]2CC[C@]2(C)[C@@H](CO)CC[C@@H]12 [3α-hydroxy-17b-hydroxymethyl-5α-androstane-] has an IC50 of 455 nM.
C/C=C1/CC[C@H]2[C@@H]3CC[C@H]4C[C@H](O)CC[C@@H]4[C@H]3CC[C@]12C [3α-hydroxy-19-nor-5α-pregnan-cis-17(20)-ene] was tested, and the IC50 was 373 nM.
C[C@]12CC[C@@H](O)C[C@@H]1CC[C@@H]1[C@@H]2CC[C@]2(C)[C@@H](C(=O)CSc3ccncc3)CC[C@@H]12 [3α-hydroxy-21-(pyrid-4-ylthio)-5α-pregnan-20-one] showed an IC50 of 23 nM.

Same assay, conditions: inhibition of [35S]TBPS (2 nM) binding, rat cerebral cortex P2 membranes, 5 µM GABA, 90 minute incubation at 22°C; sodium salt
C[C@@]1(O)CC[C@@]2(C)[C@@H](CC[C@@H]3[C@@H]2CC[C@]2(C)[C@@H](C(=O)COC(=O)CCC(=O)O)CC[C@@H]32)C1 [3α,21-dihydroxy-3β-methyl-5α-pregnan-20-one 21-Hemisuccinate, sodium salt] gave an IC50 of 211 nM.
Molecule C[C@]12CC[C@@H](O)C[C@@H]1CC[C@@H]1[C@@H]2CC[C@]2(C)[C@@H](C(=O)COC(=O)CCC(=O)O)CC[C@@H]12 [3α,21-dihydroxy-5α-pregnan-20-one 21-hemisuccinate, sodium salt] has an IC50 of 251 nM.
